Molecules are shown by their SMILES. In brackets after ≈: the same amount, converted by molar mass. Where two headings read alike, the source gives them in different places.

Holding throughout (assay type): cell-based
Assay [1] has as its system Staphylococcus aureus 45 RAR 2. Description: microbe, parasite or virus in culture. The conditions noted are these: 45RAR2. Here is the method: (§1) The antimicrobial spectra of a number of compounds of the invention were tested by the following method:
(§2) Twelve petri dishes containing successive aqueous dilutions of the test compound mixed with 10 ml of sterilized Brain Heart Infusion agar (Difco 0418-01-5) are prepared. Each plate is inoculated with 1:100 (or 1:10 for slow growing strains, primarily Micrococcus and Streptococcus) dilutions of up to 32 different microorganisms, using a Steers replicator block The inoculated plates are incubated at 35°-37° C. for 20-24 hours. In addition, a control plate, using BHI agar containing no test compound, is prepared and incubated at the beginning and end of each test.
(§3) An additional plate containing a compound having known susceptibility patterns for the organisms being tested and belonging to the same antibiotic class as the test compound is also prepared and incubated as a further control, as well as to provide test-to-test comparability. Erythromycin A was used for this purpose.
(§4) After incubation, each disk is read. The MIC is defined as the lowest concentration of drug yielding no growth, a slight haze, or sparsely isolated colonies on the inoculum spot as compared to the growth control.

Assay [2] relates to Escherichia coli DC-2. In words: In vitro antibacterial activity, agar dilution MIC. Here is the method: as §1, §2, §3, §4
Assay [3] deals with Staphylococcus epidermidis 3519. In words: In vitro antibacterial activity, agar dilution MIC. The procedure:
as §1, §2, §3, §4

For assay [4], the system named is Streptococcus pyogenes 930 CONST. Description: In vitro antibacterial activity, agar dilution MIC. The conditions noted are these: 930CONST. Here is the method: as §1, §2, §3, §4
The test system of assay [5] is Micrococcus luteus ATCC 4698. In words: In vitro antibacterial activity, agar dilution MIC. Here is the method: as §1, §2, §3, §4
Assay [6] concerns Escherichia coli Juhl. In words: In vitro antibacterial activity, agar dilution MIC. Here is the method: as §1, §2, §3, §4
Assay [7] deals with Escherichia coli SS. Description: In vitro antibacterial activity, agar dilution MIC. Here is the method: as §1, §2, §3, §4
Assay [8] deals with Staphylococcus aureus A5177. In words: In vitro antibacterial activity, agar dilution MIC. Here is the method: as §1, §2, §3, §4
In assay [9] the test system is Staphylococcus aureus NCTC 10649. In words: In vitro antibacterial activity, agar dilution MIC. The procedure: as §1, §2, §3, §4
The subject of assay [10] is Streptococcus pyogenes EES61. Description: In vitro antibacterial activity, agar dilution MIC. The procedure: as §1, §2, §3, §4
Assay [11] has as its system Streptococcus pyogenes 2548 INDUC. Description: In vitro antibacterial activity, agar dilution MIC. The procedure: as §1, §2, §3, §4
For assay [12], the system named is Streptococcus agalactiae CMX 508. In words: In vitro antibacterial activity, agar dilution MIC. The procedure: as §1, §2, §3, §4
In assay [13] the test system is Staphylococcus aureus 642A. In words: In vitro antibacterial activity, agar dilution MIC. Here is the method: as §1, §2, §3, §4
For assay [14], the system named is Streptococcus bovis A5169. In words: In vitro antibacterial activity, agar dilution MIC. The procedure:
as §1, §2, §3, §4

Assay [15] deals with Staphylococcus aureus CMX 553. Description: In vitro antibacterial activity, agar dilution MIC. Here is the method:
as §1, §2, §3, §4

Assay [16] has as its system Staphylococcus aureus ATCC 6538P. Description: In vitro antibacterial activity, agar dilution MIC. Conditions: ATCC6538P. Here is the method: as §1, §2, §3, §4
For assay [17], the system named is Escherichia coli H560. In words: In vitro antibacterial activity, agar dilution MIC. Here is the method: as §1, §2, §3, §4
Assay [18] concerns Enterococcus faecium ATCC 8043. In words: In vitro antibacterial activity, agar dilution MIC. Here is the method: as §1, §2, §3, §4
For assay [19], the system named is Staphylococcus aureus 45. In words: In vitro antibacterial activity, agar dilution MIC. Here is the method: as §1, §2, §3, §4
The subject of assay [20] is Micrococcus luteus ATCC 9341. Description: In vitro antibacterial activity, agar dilution MIC. The procedure: as §1, §2, §3, §4
Where [21] appears, read: S. epidermidis 3519, Brain Heart Infusion agar, 20-24 hours, read-out: MIC.
[22] abbreviates: S. aureus A5177, Brain Heart Infusion agar, 20-24 hours, read-out: MIC.
Where [23] appears, read: NCTC10649, S. aureus NCTC 10649, Brain Heart Infusion agar, 20-24 hours, read-out: MIC.
Where [24] appears, read: S. pyogenes EES61, Brain Heart Infusion agar, 20-24 hours, read-out: MIC.
Where [25] appears, read: S. pyogenes 2548 INDUC, Brain Heart Infusion agar, 20-24 hours, read-out: MIC.
Where [26] appears, read: CMX508, S. agalactiae CMX 508, Brain Heart Infusion agar, 20-24 hours, read-out: MIC.
Setting [27] is: S. aureus 642A, Brain Heart Infusion agar, 20-24 hours, read-out: MIC.
The mark [28] stands for this setting: S. bovis A5169, Brain Heart Infusion agar, 20-24 hours, read-out: MIC.
The mark [29] stands for this setting: CMX553, S. aureus CMX 553, Brain Heart Infusion agar, 20-24 hours, read-out: MIC.
[30] abbreviates: S. aureus ATCC 6538P, Brain Heart Infusion agar, 35-37° C., 20-24 hours, read-out: MIC.
The mark [31] stands for this setting: E. coli H560, Brain Heart Infusion agar, 20-24 hours, read-out: MIC.
Where [32] appears, read: ATCC9341, M. luteus ATCC 9341, Brain Heart Infusion agar, 20-24 hours, read-out: MIC.

As for `CC[C@H]1OC(=O)[C@H](C)[C@@H](O[C@H]2C[C@@](C)(OC)[C@@H](O)[C@H](C)O2)[C@H](C)[C@@H](O[C@@H]2O[C@H](C)C[C@H](N(C)C)[C@H]2O)[C@](C)(O)C[C@@H](C)[C@@H](N2CC2)[C@H](C)[C@@H](O)[C@]1(C)O` [Example 4], the MIC was 1.56 mg/L (≈ 2.05 µM) in assay [1]; 100 mg/L (≈ 131 µM) in assay [2] (DC2); 1.56 mg/L (≈ 2.05 µM) in assay [3] (3519); > 100 mg/L in [4]; 0.78 mg/L (≈ 1.02 µM) in assay [5] (ATCC4698); > 100 mg/L in assay [6]. Also, the MIC in [7] turned out to be 0.78 mg/L (≈ 1.02 µM); in [8] (A5177) it was 6.2 mg/L (≈ 8.15 µM); in [9] (NCTC10649), 1.56 mg/L (≈ 2.05 µM); in assay [10] (EES61), 0.2 mg/L (≈ 0.263 µM); in [11] (2548INDUC), 12.5 mg/L (≈ 16.4 µM); in assay [12] (CMX508), 0.2 mg/L (≈ 0.263 µM). For the same compound, the MIC was found to be 1.56 mg/L (≈ 2.05 µM) in assay [13] (642A); 0.1 mg/L (≈ 0.131 µM) in [14]; 1.56 mg/L (≈ 2.05 µM) in [15] (CMX553); 1.56 mg/L (≈ 2.05 µM) in assay [16]; 25 mg/L (≈ 32.9 µM) in assay [17] (H560); 0.2 mg/L (≈ 0.263 µM) in assay [18] (ATCC8043). Further, the MIC turned out to be 0.78 mg/L (≈ 1.02 µM) in [19] (45) and 0.1 mg/L (≈ 0.131 µM) in [20] (ATCC9341).
Take `CC[C@H]1OC(=O)[C@H](C)[C@@H](O[C@H]2C[C@@](C)(OC)[C@@H](O)[C@H](C)O2)[C@H](C)[C@@H](O[C@@H]2O[C@H](C)C[C@H](N(C)C)[C@H]2O)[C@](C)(O)C[C@@H](C)[C@@H](N2CCS(=O)(=O)CC2)[C@H](C)[C@@H](O)[C@]1(C)O` [Example 22]: the MIC in [1] was 6.2 mg/L (≈ 7.27 µM); in [2] (DC2, E. coli DC-2, Brain Heart Infusion agar, 20-24 hours, read-out: MIC) it was > 100 mg/L; in assay [3] (setting [21]) it was 6.2 mg/L (≈ 7.27 µM); in [4] it was > 100 mg/L; in [5] (ATCC4698, M. luteus ATCC 4698, Brain Heart Infusion agar, 20-24 hours, read-out: MIC) it was 3.1 mg/L (≈ 3.63 µM); in assay [6] (E. coli Juhl, Brain Heart Infusion agar, 20-24 hours, read-out: MIC) it was > 100 mg/L. In addition, the MIC is 1.56 mg/L (≈ 1.83 µM) in assay [7] (E. coli SS, Brain Heart Infusion agar, 20-24 hours, read-out: MIC); > 100 mg/L in assay [8] (setting [22]); 3.1 mg/L (≈ 3.63 µM) in [9] (setting [23]); 0.39 mg/L (≈ 0.457 µM) in assay [10] (setting [24]); 100 mg/L (≈ 117 µM) in assay [11] (setting [25]); 0.39 mg/L (≈ 0.457 µM) in assay [12] (setting [26]). The MIC is 6.2 mg/L (≈ 7.27 µM) in assay [13] (setting [27]); 0.39 mg/L (≈ 0.457 µM) in assay [14] (setting [28]); 3.1 mg/L (≈ 3.63 µM) in assay [15] (setting [29]); 3.1 mg/L (≈ 3.63 µM) in assay [16] (setting [30]); > 100 mg/L in [17] (setting [31]); 1.56 mg/L (≈ 1.83 µM) in [18] (ATCC8043, E. faecium ATCC 8043, Brain Heart Infusion agar, 20-24 hours, read-out: MIC). Moreover, the MIC in assay [19] (S. aureus 45, Brain Heart Infusion agar, 20-24 hours, read-out: MIC) was found to be 6.2 mg/L (≈ 7.27 µM); in assay [20] (setting [32]), 0.39 mg/L (≈ 0.457 µM).
With `CC[C@H]1OC(=O)[C@H](C)[C@@H](O[C@H]2C[C@@](C)(OC)[C@@H](N)[C@H](C)O2)[C@H](C)[C@@H](O[C@@H]2O[C@H](C)C[C@H](N(C)C)[C@H]2O)[C@](C)(O)C[C@@H](C)[C@@H](N2CCOCC2)[C@H](C)[C@@H](O)[C@]1(C)O` [Example 33], the MIC in assay [1] was 0.78 mg/L (≈ 0.97 µM); in assay [2] (DC2), 6.2 mg/L (≈ 7.71 µM); in [3] (setting [21]), 0.78 mg/L (≈ 0.97 µM); in assay [4], > 100 mg/L; in assay [5] (ATCC4698) it was 0.39 mg/L (≈ 0.485 µM); in [6], 12.5 mg/L (≈ 15.5 µM). In addition, the MIC in assay [7] (read-out: MIC) turned out to be 0.2 mg/L (≈ 0.249 µM); in [8] (setting [22]) it was 6.2 mg/L (≈ 7.71 µM); in assay [9] (setting [23]) it was 0.78 mg/L (≈ 0.97 µM); in [10] (setting [24]), 0.1 mg/L (≈ 0.124 µM); in assay [11] (setting [25]) it was 50 mg/L (≈ 62.2 µM); in [12] (setting [26]) it was 0.1 mg/L (≈ 0.124 µM). The MIC in assay [13] (setting [27]) came to 0.78 mg/L (≈ 0.97 µM); in assay [14] (setting [28]) it was 0.05 mg/L (≈ 0.0622 µM); in [15] (setting [29]), 0.78 mg/L (≈ 0.97 µM); in [16] (setting [30]), 0.78 mg/L (≈ 0.97 µM); in [17] (setting [31]), 3.1 mg/L (≈ 3.86 µM); in assay [18] (ATCC8043, read-out: MIC), 0.2 mg/L (≈ 0.249 µM). For the same compound, the MIC in [19] (45) came out at 0.39 mg/L (≈ 0.485 µM); in assay [20] (setting [32]), 0.05 mg/L (≈ 0.0622 µM).

The values are drawn from patent publication US5075289A, “9-R-azacyclic erythromycin antibiotics” (priority 1988, dated 1991).
